Read-outs that look alike come from different tables or passages of the source.
Key:
[1] = tested on: T47D Cells; assay: Cell proliferation inhibition, CTG (CelltiterGlo) method, alone or combined with fulvestrant; format: cell-based; conditions: compound alone; for IC50: Homo sapiens, T47D, 168 h, 7 days; for Maximum Inhibition Rate on T47D Cells: maximum value fitted by GraphPad Prism 8
Experimental: (§1) a). BT-474 cells were cultured in Hybri-Care medium supplemented with 1% antibiotics and 10% FBS, and incubated in the condition of 37°C with 5% CO2; b). MCF-7 cells were cultured in EMEM medium supplemented with 1% antibiotics, 0.01 mg/mL insulin, and 10% FBS, and incubated in the condition of 37°C with 5% CO2; c). ZR-75-1 cells were cultured in RPMI-1640 medium supplemented with 1% antibiotics and 10% FBS, and incubated in the condition of 37°C with 5% CO2; d). T47D cells were cultured in RPMI-1640 medium supplemented with 1% antibiotics, 0.2 U/mL insulin, and 10% FBS, and incubated in the condition of 37°C with 5% CO2; e) CAMA-1 cells were cultured in EMEM medium supplemented with 1% antibiotics and 10% FBS, and incubated in the condition of 37°C with 5% CO2.
(§2) a). Cells were routinely cultured until reaching 80%-90% confluence and when the required cell number was reached, they were harvested; b). Resuspended in the corresponding medium, counted, and prepared into a cell suspension with appropriate density; c). The cell suspension was added to a 384-well plate at 40 µL per well. Table 1. Plating densities of different cell lines
(§3) d). The cells were cultured overnight in an incubator at 37°C with 5% CO2 .
a). The compound of Formula (A) was serially diluted 3-fold for 10 concentrations starting from a stock solution of 60 mM (using the monofumarate dihydrate of the compound of Formula (A), with the concentration calculated based on the free base of the compound of Formula (A); the compound of Formula (A) or salt thereof was prepared with reference to the preparation method disclosed in WO2022017448A1); b). Fulvestrant was diluted from 10 mM to 2 mM with DMSO, then serially diluted 3-fold for 10 concentrations; c). Fulvestrant was diluted from 2 mM to 0.2 mM with DMSO, then serially diluted 3-fold for 10 concentrations; d). Fulvestrant was diluted from 0.2 mM to 2 µM with DMSO; e). Fulvestrant was diluted from 2 µM to 0.8 µM with DMSO; f). Fulvestrant was diluted from 2 µM to 0.3 µM with DMSO; g) Fulvestrant was diluted from 0.8 µM to 0.08 µM with DMSO; h). The final concentration of DMSO was 0.1%; i). Cells supplemented with DMSO served as control wells for high reading values; j). Cell-free medium served as control wells for low reading values.
24 Hours after MCF-7, T47D, and CAMA-1 cells were plated, the compound was administered alone. For the compound of Formula (A): 20 nL of the compound prepared in step 2.3 a) + 20 nL of DMSO were added. For compound fulvestrant: 20 nL of the compound prepared in step 2.3 c) + 20 nL of DMSO were added.
24 Hours after T47D cells were plated, the compound of Formula (A) was administered in combination with fulvestrant: 20 nL of the compound prepared in step 2.3 a) + 20 nL of the compounds prepared in step 2.3 c), e), and g). […]

[2] = tested on: CAMA-1 Cells; assay: as above; format: cell-based; conditions: compound alone; for IC50: Homo sapiens, CAMA-1, 168 h, 7 days
Experimental: as §1, §2, §3
a). The compound of Formula (A) was serially diluted 3-fold for 10 concentrations starting from a stock solution of 60 mM (using the monofumarate dihydrate of the compound of Formula (A), with the concentration calculated based on the free base of the compound of Formula (A); the compound of Formula (A) or salt thereof was prepared with reference to the preparation method disclosed in WO2022017448A1); b). […] Cells supplemented with DMSO served as control wells for high reading values; j). Cell-free medium served as control wells for low reading values. […]
a). […] The chemiluminescent signal values were read using an Envision instrument.
Using the inhibition rate data measured by monotherapy or single-concentration combination therapy in Section 2.4, IC50 was calculated with GraphPad Prism 8 software. […]

[3] = Plasma pharmacokinetics in the xenograft mice on day 28 of treatment; format: in vivo, female BALB/c nude mice; conditions: for AUC(0-inf) / AUC(0-t) / Cmax / Tmax / half-life / MRT inf: female, BALB/c nude; for MRT inf: read-out: MRTInf_obs
Source text: The purpose of this study was to evaluate the therapeutic efficacy of the compound of Formula (A) in combination with fulvestrant in the MCF-7 human breast cancer subcutaneous xenograft model in female BALB/c nude mice.
On the 28th day of treatment for the mice in Experiment 2, animal plasma was continuously collected for PK detection, with a total of 112 plasma samples and 16 tumor samples. PK sample sampling protocol

[4] = sc, analyte: fulvestrant in plasma, 5 mg/mouse s.c. alone (G3) or + the compound of Formula (A) 25 mg/kg (G4)
[5] = po, analyte: the compound of Formula (A) in plasma, 25 mg/kg p.o. alone (G2) or + Fulvestrant 5 mg/mouse (G4)

Row | SMILES | IC50 [1] [nM] | Maximum Inhibition Rate on T47D Cells [1] [%] | IC50 [2] [nM] | AUC%Extrap_obs ([3]; analyte: fulvestrant in plasma, 5 mg/mouse s.c. alone (G3) or + the compound of Formula (A) 25 mg/kg (G4)) [%] | AUC(0-inf) [3, 4] [ng·h/mL] | AUC(0-t) [3, 4] [ng·h/mL] | Cmax [3, 4] [ng/mL] | Tmax [3, 4] [h] | half-life [3, 4] [h] | MRT inf [3, 4] [h] | Maximum Inhibition Rate on CAMA-1 Cells ([2]; maximum value fitted by GraphPad Prism 8) [%] | AUC%Extrap_obs ([3]; analyte: the compound of Formula (A) in plasma, 25 mg/kg p.o. alone (G2) or + Fulvestrant 5 mg/mouse (G4)) [%] | AUC(0-inf) [3, 5] [ng·h/mL] | AUC(0-t) [3, 5] [ng·h/mL] | Cmax [3, 5] [ng/mL] | Tmax [3, 5] [h] | half-life [3, 5] [h] | MRT inf [3, 5] [h]
1 | C[C@]12CC[C@@H]3c4ccc(O)cc4C[C@@H](CCCCCCCCC[S+]([O-])CCCC(F)(F)C(F)(F)F)[C@H]3[C@@H]1CC[C@@H]2O (stereo partly drawn) [Fulvestrant, reference compound] | 0.09 | 62.71 | > 100 | 12.6 | 6610 | 5780 | 268 | 0.375 | 23.6 | 37.7 | – | – | – | – | – | – | – | –
2 | CC(C)NC[C@@H](C(=O)N1CCN(c2ncnc3c2[C@H](C)CC(=O)N3)[C@H]2C[C@H]21)c1ccc(Cl)cc1 [The compound of Formula (A), (R)-4-((1S,6R)-5-((S)-2-(4-chlorophenyl)-3-(isopropylamino)propanoyl)-2,5-diazabicyclo[4.1.0]heptan-2-yl)-5-methyl-5,8-dihydropyrido[2,3-d]pyrimidin-7(6H)-one] | 358 | 91.47 | 1130 | – | – | – | – | – | – | – | 95.43 | 1.48 | 18800 | 18500 | 1340 | 2.75 | 7.93 | 10.5

— EP4729061A1, “USE OF AKT INHIBITOR IN PREPARATION OF DRUG FOR PREVENTING OR TREATING BREAST CANCER” (Nanjing Chia Tai Tianqing Pharmaceutical Co., Ltd., priority 2023, dated 2024)
